This experiment deals with bone marrow-derived dendritic cells (BMDCs). In words: BMDC surface marker expression by FACS. It is filed as cell-based, mouse. How it is done: Bone marrow-derived dendritic cells (BMDCs) were generated as described by Zanoni et al. Generation of mouse bone marrow-derived dendritic cells (BM-DCs) (2009). Briefly, bone marrow progenitor cells were isolated from the femur of C57BL/6J mouse and cultured with media containing 20 ng/ml of GM-CSF. Cells were replenished with fresh media after 5 days of culture and collected after 48 hours of media replenishment. Naïve CD4 T cells and T cells were collected from OT-II splenocytes by using naïve CD4 T cell or CD3 T cell isolation kit (STEMCELL Technologies), respectively.
When ready for flow cytometry (FACS) analysis, cells were transferred to a 96-well U-bottom plate and spun at 500 g for 5 minutes. […]
FACS was performed by either LSR-II (Becton Dickinson) or Attune NxT flow cytometer. […] All FACS data was analyzed on FlowJo software (Tree Star Inc., Ashland, Oreg.).
DCs are one of the best antigen presenting cells that express costimulatory molecules and present antigens, which are modulated by mTOR signaling and antigen processing, respectively. […] DCs from the bone marrow (BMDCs) were harvested and treated with 100 ng/ml of free RAPA or 2 μg/ml of free OVA for either 72 hours or for 24 hours and analyzed by FACS. In all following experiments, BMDCs were gated on CD11c+, live cells, and surface markers of BMDCs were analyzed by flow cytometry. […]
For orientation: Flow cytometry measures light scatter and fluorescence of single cells or particles in a stream.

The source of these data is patent publication US11517628B2, “Particles for spatiotemporal release of agents” (Yale University, priority 2018, dated 2022).

Consider `CO[C@H]1C[C@@H]2CC[C@@H](C)[C@@](O)(O2)C(=O)C(=O)N2CCCC[C@H]2C(=O)O[C@H]([C@H](C)C[C@@H]2CC[C@@H](O)[C@H](OC)C2)CC(=O)[C@H](C)/C=C(\C)[C@@H](O)[C@@H](OC)C(=O)[C@H](C)C[C@H](C)/C=C/C=C/C=C/1C` [free RAPA, Rapamycin], for which the “Expression of surface markers PD-L1, CD80, CD86, and MHC II” value (free RAPA 100 ng/ml, 72 hours compared to 24 hours) is “diminished expression of surface markers”.

B1: free OVA: Ovalbumin, the model antigen, given soluble (protein, UniProt P01012 2-386, looked up)
Ovalbumin: GSIGAASMEFCFDVFKELKVHHANENIFYCPIAIMSALAMVYLGAKDSTRTQINKVVRFDKLPGFGDSIEAQCGTSVNVHSSLRDILNQITKPNDVYSFSLASRLYAEERYPILPEYLQCVKELYRGGLEPINFQTAADQARELINSWVESQTNGIIRNVLQPSSVDSQTAMVLVNAIVFKGLWEKAFKDEDTQAMPFRVTEQESKPVQMMYQIGLFRVASMASEKMKILELPFASGTMSMLVLLPDEVSGLEQLESIINFEKLTEWTSSNVMEERKIKVYLPRMKMEEKYNLTSVLMAMGITDVFSSSANLSGISSAESLKISQAVHAAHAEINEAGREVVGSAEAGVDAASVSEEFRADHPFLFCIKHIATNAVLFFGRCVSP
As for B1, the “Expression of surface markers PD-L1, CD80, CD86, and MHC II” value (free OVA 2 μg/ml, 72 hours vs 24 hours) is “no differences were observed”.
